Laboratory results taken from patent US6355799B1, “Substituted benzene compounds, process for their preparation, and herbicidal and defoliant compositions containing them” (ISK Americas Incorporated, priority 1997, dated 2002).

How the values were obtained:
Format in all cases: in vivo
[1] = test system: field corn (Zea mays L., var. Dekalb 535, CORN); assay: Post-emerge test, crop safety; conditions: phytotoxicity rating 0-100 (0 no damage, 100 complete death), 14 days after application
Summary of the method: (§1)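 Rating: 0–100 visual injury, 14 DAA. Application: acetone, 187 l/ha, 15–1000 g ai/ha, flat-fan track sprayer with nozzle 40–45 cm above soil or canopy. Post-emerge runs used 0.25% v/v surfactant on 2–3 leaf plants.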

[2] = test system: upland rice (Oryza sp., var. Tebonnet, RICE); assay: Post-emerge test, crop safety; conditions: phytotoxicity rating 0-100 (0 no damage, 100 complete death), 14 days after application
Summary of the method: as §1

[3] = test system: redroot pigweed (Amaranthus retroflexus, AMARE); assay: Pre-emerge test, greenhouse herbicide activity screening; conditions: pre-emerge, rated 14 days after application, 0 = no damage, 100 = complete death
Summary of the method: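 Compounds in acetone were track-sprayed at 187 l/ha, 15–1000 g ai/ha, onto sandy loam pots. Pre-emerge seeds were sown one day before spraying, with surface watering afterwards. Post-emerge plants were at the 2–3 leaf stage and sprayed with 0.25% v/v non-ionic surfactant. Injury was rated 0–100 at 14 days.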

[4] = test system: velvetleaf (Abutilon theophrasti, ABUTH); assay: Post-emerge test, greenhouse herbicide activity screening; conditions: phytotoxicity rating 0-100 (0 no damage, 100 complete death), 14 days after application
Summary of the method: (§2)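 Sandy loam pots; pre-emerge: sown 1 d pre-spray, surface-watered after, then bottom-watered. Post-emerge: sown 8–21 d before, 2–3 leaf stage, + 0.25% v/v NIS, bottom-watered. Acetone, 187 l/ha track spray, 15–1000 g ai/ha. 0–100 injury score, day 14.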

[5] = test system: ivyleaf morningglory (Ipomoea hederacea, IPOHE); assay: as above; conditions: phytotoxicity rating 0-100 (0 no damage, 100 complete death), 14 days after application
Summary of the method: as §2

[6] = test system: lambsquarters (Chenopodium album, CHEAL); assay: as above; conditions: phytotoxicity rating 0-100 (0 no damage, 100 complete death), 14 days after application
Summary of the method: as §2

[7] = test system: large crabgrass (Digitaria sanguinalis, DIGSA); assay: as above; conditions: phytotoxicity rating 0-100 (0 no damage, 100 complete death), 14 days after application
Summary of the method: as §2

[8] = test system: green foxtail (Setaria viridis, SETVI); assay: as above; conditions: phytotoxicity rating 0-100 (0 no damage, 100 complete death), 14 days after application
Summary of the method: as §2

[9] = test system: sicklepod (Cassia obtusifolia, CASOB); assay: as above; conditions: phytotoxicity rating 0-100 (0 no damage, 100 complete death), 14 days after application
Summary of the method: as §2

[10] = test system: redroot pigweed (Amaranthus retroflexus, AMARE); assay: as above; conditions: phytotoxicity rating 0-100 (0 no damage, 100 complete death), 14 days after application
Summary of the method: as §2

[11] = test system: common ragweed (Ambrosia artemisizfolia L., AMBEL); assay: as above; conditions: phytotoxicity rating 0-100 (0 no damage, 100 complete death), 14 days after application
Summary of the method: as §2

[12] = test system: barnyardgrass (Echinochloa crus-galli, ECHCG); assay: as above; conditions: phytotoxicity rating 0-100 (0 no damage, 100 complete death), 14 days after application
Summary of the method: as §2

[13] = test system: velvetleaf (Abutilon theophrasti, ABUTH); assay: Pre-emerge test, greenhouse herbicide activity screening; conditions: pre-emerge, rated 14 days after application, 0 = no damage, 100 = complete death
Summary of the method: (§3)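 Compounds in acetone were track-sprayed at 15–1000 g ai/ha: pre-emergence onto soil sown the previous day, then top-watered to incorporate and later bottom-watered; post-emergence onto 2–3 leaf plants with 0.25% v/v surfactant, bottom-watered only. Ratings on a 0–100 phytotoxicity scale were taken at day 14.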

[14] = test system: ivyleaf morningglory (Ipomoea hederacea, IPOHE); assay: as above; conditions: pre-emerge, rated 14 days after application, 0 = no damage, 100 = complete death
Summary of the method: as §3

[15] = test system: lambsquarters (Chenopodium album, CHEAL); assay: as above; conditions: pre-emerge, rated 14 days after application, 0 = no damage, 100 = complete death
Summary of the method: as §3

[16] = test system: large crabgrass (Digitaria sanguinalis, DIGSA); assay: as above; conditions: pre-emerge, rated 14 days after application, 0 = no damage, 100 = complete death
Summary of the method: as §3

[17] = test system: green foxtail (Setaria viridis, SETVI); assay: as above; conditions: pre-emerge, rated 14 days after application, 0 = no damage, 100 = complete death
Summary of the method: as §3

[18] = test system: sicklepod (Cassia obtusifolia, CASOB); assay: as above; conditions: pre-emerge, rated 14 days after application, 0 = no damage, 100 = complete death
Summary of the method: as §3

[19] = test system: johnsongrass (Sorghum halepense, SORHA); assay: as above; conditions: pre-emerge, rated 14 days after application, 0 = no damage, 100 = complete death
Summary of the method: as §3

[20] = test system: common ragweed (Ambrosia artemisizfolia L., AMBEL); assay: as above; conditions: pre-emerge, rated 14 days after application, 0 = no damage, 100 = complete death
Summary of the method: as §3

[21] = test system: barnyardgrass (Echinochloa crus-galli, ECHCG); assay: as above; conditions: pre-emerge, rated 14 days after application, 0 = no damage, 100 = complete death
Summary of the method: as §3

[22] = test system: field corn (Zea mays L., var. Dekalb 535, CORN); assay: Pre-emerge test, crop safety; conditions: pre-emerge, rated 14 days after application, 0 = no damage, 100 = complete death
Summary of the method: as §1

[23] = test system: upland rice (Oryza sp., var. Tebonnet, RICE); assay: Pre-emerge test, crop safety; conditions: pre-emerge, rated 14 days after application, 0 = no damage, 100 = complete death
Summary of the method: as §1

CCOc1c(Cl)cc(F)c(-n2c(=O)cc(C(F)(F)F)n(C)c2=O)c1N [Compound 1-61]
Post-emerge Herbicidal Activity CORN (crop damage) ([1]; 63 g ai/ha): 10
Post-emerge Herbicidal Activity CORN (crop damage) ([1]; 250 g ai/ha): 30
Post-emerge Herbicidal Activity RICE (crop damage) ([2]; 63 g ai/ha): 10
Post-emerge Herbicidal Activity RICE (crop damage) ([2]; 250 g ai/ha): 35
Pre-emerge Herbicidal Activity AMARE (phytotoxicity rating, scale 0-100) ([3]; 63 g ai/ha): 95
Pre-emerge Herbicidal Activity AMARE (phytotoxicity rating, scale 0-100) ([3]; 250 g ai/ha): 100
Post-emerge Herbicidal Activity ABUTH ([4]; 63 g ai/ha): 70
Post-emerge Herbicidal Activity ABUTH ([4]; 250 g ai/ha): 100
Post-emerge Herbicidal Activity IPOHE ([5]; 63 g ai/ha): 100
Post-emerge Herbicidal Activity IPOHE ([5]; 250 g ai/ha): 100
Post-emerge Herbicidal Activity CHEAL ([6]; 63 g ai/ha): 30
Post-emerge Herbicidal Activity CHEAL ([6]; 250 g ai/ha): 70
Post-emerge Herbicidal Activity DIGSA ([7]; 63 g ai/ha): 10
Post-emerge Herbicidal Activity DIGSA ([7]; 250 g ai/ha): 30
Post-emerge Herbicidal Activity SETVI ([8]; 63 g ai/ha): 10
Post-emerge Herbicidal Activity SETVI ([8]; 250 g ai/ha): 30
Post-emerge Herbicidal Activity CASOB ([9]; 63 g ai/ha): 60
Post-emerge Herbicidal Activity CASOB ([9]; 250 g ai/ha): 70
Post-emerge Herbicidal Activity AMARE ([10]; 63 g ai/ha): 50
Post-emerge Herbicidal Activity AMARE ([10]; 250 g ai/ha): 70
Post-emerge Herbicidal Activity AMBEL ([11]; 63 g ai/ha): 70
Post-emerge Herbicidal Activity AMBEL ([11]; 250 g ai/ha): 85
Post-emerge Herbicidal Activity ECHCG ([12]; 63 g ai/ha): 0
Post-emerge Herbicidal Activity ECHCG ([12]; 250 g ai/ha): 10
Pre-emerge Herbicidal Activity ABUTH (phytotoxicity rating, scale 0-100) ([13]; 63 g ai/ha): 100
Pre-emerge Herbicidal Activity ABUTH (phytotoxicity rating, scale 0-100) ([13]; 250 g ai/ha): 100
Pre-emerge Herbicidal Activity IPOHE (phytotoxicity rating, scale 0-100) ([14]; 63 g ai/ha): 60
Pre-emerge Herbicidal Activity IPOHE (phytotoxicity rating, scale 0-100) ([14]; 250 g ai/ha): 90
Pre-emerge Herbicidal Activity CHEAL (phytotoxicity rating, scale 0-100) ([15]; 63 g ai/ha): 100
Pre-emerge Herbicidal Activity CHEAL (phytotoxicity rating, scale 0-100) ([15]; 250 g ai/ha): 100
Pre-emerge Herbicidal Activity DIGSA (phytotoxicity rating, scale 0-100) ([16]; 63 g ai/ha): 40
Pre-emerge Herbicidal Activity DIGSA (phytotoxicity rating, scale 0-100) ([16]; 250 g ai/ha): 99
Pre-emerge Herbicidal Activity SETVI (phytotoxicity rating, scale 0-100) ([17]; 63 g ai/ha): 95
Pre-emerge Herbicidal Activity SETVI (phytotoxicity rating, scale 0-100) ([17]; 250 g ai/ha): 100
Pre-emerge Herbicidal Activity CASOB (phytotoxicity rating, scale 0-100) ([18]; 63 g ai/ha): 30
Pre-emerge Herbicidal Activity CASOB (phytotoxicity rating, scale 0-100) ([18]; 250 g ai/ha): 80
Pre-emerge Herbicidal Activity SORHA (phytotoxicity rating, scale 0-100) ([19]; 63 g ai/ha): 70
Pre-emerge Herbicidal Activity SORHA (phytotoxicity rating, scale 0-100) ([19]; 250 g ai/ha): 99
Pre-emerge Herbicidal Activity AMBEL (phytotoxicity rating, scale 0-100) ([20]; 63 g ai/ha): 60
Pre-emerge Herbicidal Activity AMBEL (phytotoxicity rating, scale 0-100) ([20]; 250 g ai/ha): 100
Pre-emerge Herbicidal Activity ECHCG (phytotoxicity rating, scale 0-100) ([21]; 63 g ai/ha): 75
Pre-emerge Herbicidal Activity ECHCG (phytotoxicity rating, scale 0-100) ([21]; 250 g ai/ha): 99
Pre-emerge crop damage CORN (phytotoxicity rating, scale 0-100) ([22]; 63 g ai/ha): 60
Pre-emerge crop damage CORN (phytotoxicity rating, scale 0-100) ([22]; 250 g ai/ha): 95
Pre-emerge crop damage RICE (phytotoxicity rating, scale 0-100) ([23]; 63 g ai/ha): 50
Pre-emerge crop damage RICE (phytotoxicity rating, scale 0-100) ([23]; 250 g ai/ha): 95
